Assay results taken from patent US6524527B2 (Natural Corporation, priority 1998, dated 2003).

What was measured:
Type in all cases: physicochemical
[1] = Oxidation of CLA methyl ester in open test tube, GLC composition; details: for relative content, Day 0: CLA methyl ester sample before oxidation; for relative content, Day 115: open test tube, 115 days, room temperature, free access to air
Protocol: This example describes the oxidation of CLA exposed to open air. A small sample of methyl ester was prepared and stored in an open test tube for 115 days at room temperature with free access to air. […] A chromatogram of the same sample was also run on a polar column. The results indicated the presence of a large number of short chain polar components (i.e., breakdown products).

[2] = Oil stability index (OSI) of CLA triacylglyceride with added antioxidants; details: antioxidant added to CLA triacylglyceride, 0-0.1 %
Protocol: In some embodiments, oxidation of CLA is prevented by the addition of metal oxidant chelators or peroxide scavengers to the finished product. In some embodiments, the amount of oxidation is measured by the oil stability index (OSI). The OSI (See e.g., AOCS official method Cd 12b-92) is a measurement of an oil's resistance to oxidation. It is defined mathematically as the time of maximum change of the rate of oxidation. This rate can be determined mathematically. Experimentally, the OSI is calculated by measuring the change in conductivity of deionized water is which volatile organic acids (oxidation products) are dissolved. When performing OSI measurements, it is important to avoid contamination by trace amounts of metals, which can accelerate the oxidation process. This is generally accomplished by careful washing of all glassware used with a cleaning solution lacking chromate or surfactants. Water must be deionized and all solvents must be of a highly purified grade. […]
The oxygen stability index (OSI) was measured using a method known in the art (AOCS official method Cd 12b-92 using an OSI apparatus from Omnion Instruments). […] The conductivity of the water is continually monitored over time. The OSI (the point of maximum change of the rate of oxidation) is determined mathematically. […]

[3] = Peroxide value (PV), colorimetric ferric thiocyanate method; details: after storage in open glass
From the text: The present invention is not limited to any one mechanism. Indeed, an understanding of the mechanism of the invention is not necessary to produce the composition or perform the methods of the present invention.

SMILES	relative content, Day 0 [1]	relative content, Day 115 [1]	increase of the OSI value by addition of antioxidant [2]	peroxide values (PV) [3]
CCCCCC/C=C\C=C/CCCCCCCC(=O)O [CLA, c9, c11]	0.11	0	–	–
CCCCCC/C=C/C=C\CCCCCCCC(=O)O [CLA, c9, t11, c9,t11-octadecadienoic]	7.68	0	–	–
Cc1c(C)c2c(c(C)c1O)CC[C@@](C)(CCC[C@H](C)CCC[C@H](C)CCCC(C)C)O2 [alpha-tocopherol]	–	–	did not significantly increase	–
CCCCC/C=C\C/C=C\CCCCCCCC(=O)O [C18:2, c9, c12, 9,12-linoleic acid]	0.06	0.03	–	–
CCCCCCCCCCCCCCCC(=O)O [C 16:0, palmitic acid]	1.36	1027	–	–
CCCCC/C=C\C=C/CCCCCCCCC(=O)O [CLA, c10, c12, c10,c12 octadecadienoic acid]	0.09	0	–	–
CCCCC/C=C\C=C\CCCCCCCCC(=O)O [CLA, t10, c12, t10,c12-octadecadienoic acid]	7.63	0	–	–

The next lines start with the values.

relative content, Day 0 [1]	relative content, Day 115 [1]	increase of the OSI value by addition of antioxidant [2]	peroxide values (PV) [3]	SMILES
0	0.33	–	–	CCCCCCCC/C=C/CCCCCCCC(=O)O [C18:1, t9]
4.14	3.19	–	–	CCCCCCCC/C=C\CCCCCCCC(=O)O [C18:1, c9, oleic acid]
–	–	–	370	CCCCC/C=C\C/C=C\CCCCCCCC(=O)O [linoleic acid]
0.13	0.10	–	–	CCCCCC/C=C\CCCCCCCCCC(=O)O [C18:1, c11]
